The values that follow come from patent publication EP4775586A1, “DEUTERATED TETRACYCLIC DERIVATIVE AND USE THEREOF” (priority 2023, dated 2025).

Each structure is given as a SMILES string.

One data set concerns the target T1, CYP1A2 (Mus musculus, UniProt P00186).
T1 construct: from tissue; host or cells: mouse liver microsomes (component of a kit)
T1 sequence (P00186 1-513): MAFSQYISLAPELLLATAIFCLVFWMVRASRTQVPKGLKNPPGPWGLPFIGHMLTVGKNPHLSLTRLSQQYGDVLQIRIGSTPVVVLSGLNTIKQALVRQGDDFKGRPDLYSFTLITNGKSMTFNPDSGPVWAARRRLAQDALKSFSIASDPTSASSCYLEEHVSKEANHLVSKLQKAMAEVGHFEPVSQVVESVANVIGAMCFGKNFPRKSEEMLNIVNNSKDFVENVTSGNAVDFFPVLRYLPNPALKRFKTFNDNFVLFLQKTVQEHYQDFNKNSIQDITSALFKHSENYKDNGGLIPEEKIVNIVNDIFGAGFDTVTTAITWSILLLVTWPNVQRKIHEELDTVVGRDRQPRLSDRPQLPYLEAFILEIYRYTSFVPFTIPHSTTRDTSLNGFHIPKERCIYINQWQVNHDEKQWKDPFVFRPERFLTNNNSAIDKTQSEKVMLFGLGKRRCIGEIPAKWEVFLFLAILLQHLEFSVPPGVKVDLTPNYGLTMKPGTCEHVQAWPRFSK
Format: in vitro ADME. On the procedure: (§1) This example was to detect the CYP450 metabolic enzyme phenotype of the deuterated compound YF027 and its non-deuterated control compound A (using a CYP450 enzyme metabolic phenotype research kit (recombinant enzymatic method/7 enzymes)-mouse liver microsome test).
(§2) • a. The test compound was prepared into a 40 mM stock solution for later use. 2.5 µL of the stock solution was taken and diluted with DMSO to a test compound concentration of 200 µM, and the compound at this concentration was used in subsequent tests. • b. The working solution concentration of the mixed positive substrates, phenacetin and testosterone, was 200 µM.
(§3) 1) The components of the kit were thawed in an ice bath. The mixture was well mixed by vortexing and then placed on ice for later use. 2) In addition to the microsomes, the other components of the incubation systems were mixed according to the ratios and well mixed by pipetting, and the ratios of the incubation systems are shown below; Table 6. Incubation system of positive control group
(§4) The inhibitors were quinidine, naphthoflavone, pilocarpine, sodium diethyldithiocarbamate, ticlopidine, ketoconazole, and sulfaphenazole, which corresponded to the inhibition of CYP450 enzymes CYP2D6, CYP1A2, CYP2A6, CYP2E1, CYP2C19, CYP3A4, and CYP2C9, respectively. Table 9. Incubation system of negative control group
(§5) 3) Except for the negative control group (Table 9), 3.125 µL of liver microsomes was added to each of the above incubation systems to prepare 125 µL of reaction solution. The reaction solutions were well mixed by vortexing, and then placed in a water bath at 37 °C to initiate the reaction. A timer was set. 4) At time points of 0 min and 90 min, 50 µL of reaction solution was taken, and a pre-cooled acetonitrile solution was added to the reaction solution. The mixture was quickly well mixed by vortexing to stop the reaction. 5) Mass spectrometry detection pretreatment of reaction solution
(§6) The reaction solution was cryopreserved in a refrigerator at -80 °C overnight and then centrifuged for mass spectrometry detection.
(§7) The detection values after 90 min of incubation were processed as ratios relative to the 0-min detection values to determine the metabolic rate of the compounds in different experimental groups after 90 min. The metabolic inhibition rate was then calculated using the formula: Inhibition rate (%) = (1 - metabolic rate of sample with inhibitor/metabolic rate of sample without inhibitor) × 100%, as shown in Table 10 below. […] The metabolic inhibition rate reflects the effect on the metabolic elimination of the drug after adding different selective inhibitors. […]

Another data set addresses T2, CYP2E1 (Mus musculus, UniProt Q05421).
T2 construct: from tissue; host or cells: mouse liver microsomes (component of a kit)
Format: in vitro ADME. The procedure:
as §1, §2, §3, §4, §5, §6, §7

A short description of data set [1]: Pharmacokinetics and lung tissue distribution in mice, LC-MS/MS. It is filed as in vivo, Balb/C mice. Particulars: mouse, in vivo, po, 100 mg/kg. On the procedure:
In this example, the pharmacokinetic parameters and lung tissue distribution of the deuterated compounds YF027, YF032, YF036, and YF044 and their respective non-deuterated control compounds (A, B, C, and D) were determined.
Balb/C mice, male (1 group at each time point, 5 mice per group, 55 mice per compound in total), 7-8 weeks old, weighing about 20 g, animal source: Beijing Vital River Laboratory Animal Technology Co., Ltd.
The test compound was completely dissolved in an 8% Tween-80 aqueous solution. A 10 mg/mL drug liquid was prepared for intraperitoneal injection and intragastric administration.
Single intragastric administration was performed at a dose of 100 mg/kg. The pharmacokinetic differences between the deuterated compounds YF027, YF032, YF036, and YF044 and their respective non-deuterated controls A, B, C, and D were compared.
The mice were fasted overnight before administration. In the experiment, orbital venous blood and lung tissue were collected from the mice at time points of no administration group (0 min) and 10 min, 20 min, 30 min, 1 h, 2 h, 3 h, 4 h, 6 h, 8 h, and 24 h after intragastric administration, and about 300 µL of blood was collected from the eyeballs each time.
The collected blood sample was placed in an anticoagulation tube, and quickly inverted and mixed well. The tube was temporarily placed on ice after being labeled. The blood samples temporarily stored on ice were subjected to low-temperature centrifugation within 1 h at 4 °C at 3000 rpm for 10 min. The supernatant obtained after centrifugation was plasma. The plasma was transferred to a new centrifuge tube and stored in a refrigerator at -80 °C for subsequent detection.
The lung tissues of the mice were collected, washed with pre-cooled normal saline to remove the residual blood and tissue fluid, dried with absorbent paper, weighed with a balance, and placed into a centrifuge tube. The tubes were marked and stored in a refrigerator at -80 °C.
The concentrations of the compounds of the present disclosure and control compounds in plasma and lung tissue were determined using LC-MS/MS. Table 2. Pharmacokinetic parameters of compound YF027 of the present disclosure and control compound A

T2 sequence (Q05421 whole entry): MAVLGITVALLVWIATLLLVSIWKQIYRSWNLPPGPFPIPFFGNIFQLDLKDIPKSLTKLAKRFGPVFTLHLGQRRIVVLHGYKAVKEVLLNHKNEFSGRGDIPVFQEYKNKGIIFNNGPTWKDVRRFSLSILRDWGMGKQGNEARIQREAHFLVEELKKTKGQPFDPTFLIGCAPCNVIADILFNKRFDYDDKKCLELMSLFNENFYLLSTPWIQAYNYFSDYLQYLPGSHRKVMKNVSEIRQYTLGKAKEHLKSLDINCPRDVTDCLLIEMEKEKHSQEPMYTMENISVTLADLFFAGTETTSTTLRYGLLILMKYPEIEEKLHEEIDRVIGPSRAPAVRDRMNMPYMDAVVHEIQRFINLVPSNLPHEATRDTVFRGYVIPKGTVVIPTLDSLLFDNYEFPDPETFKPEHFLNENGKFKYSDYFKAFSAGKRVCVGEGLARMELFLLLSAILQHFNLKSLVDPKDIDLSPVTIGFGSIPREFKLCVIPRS

`Cl.[2H]C1([2H])CCCC([2H])([2H])N1C([2H])([2H])c1c(O)cc(C(C)(C)C)c2oc3c4ccc(O)cc4oc(=O)c3c12` [YF027, 10-(tert-Butyl)-3,8-dihydroxy-7-((piperidin-1-yl-2,2,6,6-d4)methyl-d2)-6H-benzofuran[3,2-c]chromen-6-one hydrochloride]: the Inhibition rate at CYP1A2 was found to be 0.4%. In addition, at CYP2E1, the Inhibition rate was -15.1%. Besides, in data set [1], the “AUC0-∞” value stood at 380.76 ng·h/mL, the CL came out at 262.63 L/h/kg, the Cmax was determined as 100.26 ng/mL and the “Lung tissue distribution Cmax” value is 1406.73 ng/g. In data set [1], the Tmax was 0.5 h and the t1/2 stood at 1.83 h. Further, in data set [1] (24 h), the AUC0-t was 367.05 ng·h/mL.

Broadly, the Cmax is the highest concentration seen after dosing. One may read the Tmax as the time at which the peak concentration occurs.
